How the values were obtained:
[1] = tested on: lipid bilayer; test: Superquenching of fluorescent polymer coated lipid bilayer beads (general statement); type: biochemical; details: streptolysin O with cholesterol-containing lipids, mellitin with anionic lipids
From the text: On the other hand, some test agents may only lead to gaps or smaller interruptions of the lipid bilayer, for example, as a result of insertion of a channel- or pore-forming proteins such as gramicidin and hemolysin. In either case, the result is either complete or partial superquenching of the fluorescent polymer. In general, non-porous beads are used for such quenching assays because the quenchable polymer is preferably coated onto the beads and is not impregnated into the beads.

[2] = tested on: cholesterol (10%, molar ratio) containing lipid membrane; test: Release of dye from porous particles coated with cholesterol containing lipid membrane by streptolysin-O; type: biochemical; details: low concentrations of streptolysin-O versus control without
Protocol: FIGS. 22A-B illustrate one aspect of the invention—drug and/or dye release from the present lipid-coated particles. FIG. 22A is a graph showing release of dye from porous particles (containing dye inside) where the particles are coated with a cholesterol (10%, molar ratio) containing lipid membrane. As increasing amounts of streptolysin-O are added (solid square symbols represent lower concentration than solid ovals), more dye is released. […] FIG. 22B illustrates how streptolysin-O can disrupt cholesterol-containing lipid bilayer membranes, leading to release of materials (e.g., drugs or antibiotics) enclosed within the membrane. Streptolysin-O is an anti-microbial protein that preferably binds to cholesterol and can disrupt cholesterol-containing membranes.

[3] = tested on: anionic phospholipids; test: Affinity of PLA2 for anionic phospholipids (Kim et al.); type: binding
From the text: From FIG. 18, the association constant (corresponding to the reciprocal of the point of half saturation) for nMLT and sMLT with DMPG were 5×10^6 M^−1 and 1.7×10^6 M^−1, respectively. […] Lower concentrations of nMLT, in comparison to sMLT, were required to disrupt the DMPG lipid bilayer. This might be attributed to the fact that nMLT contains some phospholipase A2 (PLA2) as a contaminant. PLA2 has a high affinity for anionic phospholipids, with an association constant of 0.5×10^10 M^−1 (Kim et al., Anal. Chem. 250, 109-116 (1997)), which is about 3000 fold higher than that of MLT. Although PLA2 activity requires calcium, which is not present in the experimental system, it has been reported that even upon addition of EDTA to natural MLT, PLA2 maintains its activity, probably due to formation of a tight complex with calcium with PLA2 (Dempsey, C. E. Biochim. Biophys. Acta 1990, 1031, 143-161).

[4] = tested on: anionic phospholipids; details: cited from earlier work
[5] = target: monomeric IgG; details: cited from earlier work

## streptolysin-O: anti-microbial protein that preferably binds to cholesterol and can disrupt cholesterol-containing membranes
[1]
  effect on the lipid bilayer: total disruption of the bilayer
[2]
  release of dye: greater than observed for control

## PLA2: lipolytic enzyme, contaminant of natural melittin
[1]
  effect on the lipid bilayer: total disruption of the bilayer
[3]
  association constant relative to that of MLT: about 3000 fold
[4]
  association constant: 5e+09 M⁻¹

B1: FcγRIIb: low affinity IgG receptor, single polypeptide chain of 310 amino acids (protein, UniProt P31994 43-310, looked up)
Low affinity immunoglobulin …: TPAAPPKAVLKLEPQWINVLQEDSVTLTCRGTHSPESDSIQWFHNGNLIPTHTQPSYRFKANNNDSGEYTCQTGQTSLSDPVHLTVLSEWLVLQTPHLEFQEGETIVLRCHSWKDKPLVKVTFFQNGKSKKFSRSDPNFSIPQANHSHSGDYHCTGNIGYTLYSSKPVTITVQAPSSSPMGIIVAVVTGIAVAAIVAAVVALIYCRKKRISALPGYPECREMGETLPEKPANPTNPDEADKVGAENTITYSLLMHPDALEEPDDQNRI
[5]
  Kd: ~1000 nM

Reference: patent US8334107B2, “Detection systems utilizing supported lipid bilayers” (priority 2005, dated 2012)
